Laboratory results as given in paper PMC3757248, “Antiestrogen-binding site ligands induce autophagy in myeloma cells that proceeds through alteration of cholesterol metabolism” (Oncotarget, 2013).

Columns and labels:
LP-1 cells [1] = assay: Electron microscopy for MLBs, AVs and UVs; assay type: cell-based, human; details: 48 h, 10 μM drug (PBPE 40 μM)
RPMI 8226 = test system: RPMI 8226; parameters: method as in earlier work; details: cited from earlier work
NCI-H929 = test system: NCI-H929; parameters: method as in earlier work; details: cited from earlier work
LP-1 cells [2] = assay: Presence of 5,6-EC in cells by GC/MS; assay type: cell-based, human; details: 48 h, 10 μM drug (PBPE 40 μM)
Procedure: (§1) The organic layer was reduced to dryness under a flux of argon and the residue was resuspended in ethanol. Sterols were analyzed by liquid chromatography and gas-liquid chromatography as described before. Neutral lipids and sphingomyelin analyses were done according to previously published procedures.

RPMI 8226 cells [3] = assay: Presence of 5,6-EC in cells by GC/MS; assay type: cell-based, human; details: 48 h, 10 μM drug (PBPE 40 μM)
Procedure: as §1

Karpas 620 = test system: Karpas 620; parameters: method as in earlier work; details: cited from earlier work
RPMI 8226 and LP-1 cells [4] = assay: Intracellular free sterol, TG and SM contents; assay type: cell-based, human; details: 5 µM OHT, 20 µM PBPE or 5 µM RU 58668 for three days
Procedure: as §1

MM tumors = test system: MM tumors; parameters: method as in PMID 20033476, PMID 16753295; details: xenografted mice bearing MM tumors; cited from earlier work
ChEH = ChEH (Homo sapiens, UniProt Q15125+Q9UBM7); assay: ChEH activity in HMCLs (TLC); assay type: cell-based; parameters: endogenous in cells; host or cells: RPMI 8226 and LP-1 human multiple myeloma cell lines; details: OHT, Tam, RU 58668 10 μM, PBPE 40 μM
Chain of ChEH (Q15125 whole entry): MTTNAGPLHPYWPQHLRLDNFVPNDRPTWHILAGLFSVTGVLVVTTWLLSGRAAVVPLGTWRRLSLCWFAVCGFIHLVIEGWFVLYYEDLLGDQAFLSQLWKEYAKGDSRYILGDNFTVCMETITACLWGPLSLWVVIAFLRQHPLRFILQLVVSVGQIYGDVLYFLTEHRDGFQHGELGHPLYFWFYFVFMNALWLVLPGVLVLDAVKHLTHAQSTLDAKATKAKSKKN
Chain of ChEH (Q9UBM7 whole entry): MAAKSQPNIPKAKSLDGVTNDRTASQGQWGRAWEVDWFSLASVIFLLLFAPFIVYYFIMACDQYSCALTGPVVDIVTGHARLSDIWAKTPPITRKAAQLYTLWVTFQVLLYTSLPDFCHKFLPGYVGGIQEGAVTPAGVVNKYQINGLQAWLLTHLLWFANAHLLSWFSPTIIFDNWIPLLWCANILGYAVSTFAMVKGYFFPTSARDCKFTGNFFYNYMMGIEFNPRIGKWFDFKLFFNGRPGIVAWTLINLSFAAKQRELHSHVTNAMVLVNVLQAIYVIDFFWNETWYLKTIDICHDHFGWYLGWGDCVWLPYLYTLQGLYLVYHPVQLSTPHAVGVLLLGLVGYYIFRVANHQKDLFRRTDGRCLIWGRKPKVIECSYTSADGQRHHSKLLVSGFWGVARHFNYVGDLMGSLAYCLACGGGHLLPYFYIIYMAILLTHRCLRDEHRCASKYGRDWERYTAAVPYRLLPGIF
Text: Cells were then pelleted and extracted with chloroform/methanol (2/1). The organic layer was reduced to dryness under a flux of argon and the residue was resuspended in EtOH. Samples were applied to thin layer chromatography (TLC) plates and developed using ethyl acetate as previously described. The radioactive metabolites were visualized by autoradiography using Kodak Biomax MS films.

HMCLs = assay: Free sterol accumulation in HMCLs; assay type: cell-based, human
Procedure: as §1

LP-1 cells [5] = assay: Sterols accumulated in cells, HPLC and GC/MS; assay type: cell-based, human; details: LP1, 48 h incubation
Procedure: as §1

RPMI 8226 cells [6] = assay: Sterols accumulated in cells, HPLC and GC/MS; assay type: cell-based, human; details: RPMI 8226, 48 h incubation
Procedure: as §1

RPMI 8226 cells [7] = assay: Electron microscopy for MLBs, AVs and UVs; assay type: cell-based, human; details: 48 h, 10 μM drug (PBPE 40 μM)
LP-1 = test system: LP-1; parameters: method as in earlier work; details: cited from earlier work
U266 = test system: U266; parameters: method as in earlier work; details: cited from earlier work
RPMI 8226 and LP-1 cells [8] = assay: Degradation of long-lived proteins; assay type: cell-based, human; details: both cell lines, 10 μM OHT, 40 μM PBPE
Procedure: The degradation of long-lived proteins was measured as described previously. Briefly, HMCLs were incubated for 24 h at 37°C with 0.2 μCi/ml of L-[[14]C]valine in complete medium. Cells were then washed resuspended in medium with no nutrients but supplemented with 10 mM valine. After the first h of incubation, the chase medium was replaced by complete medium and the incubation continued for 5 h. […] Radiolabeled proteins present in the chase medium as well as in cells were precipitated with 10% trichloroacetic acid (v/v) at 4°C. Radioactivity was measured by scintillation counting. The rate of protein degradation was calculated from the ratio of radioactivity in the medium to that of precipitated cell fraction.

OPM-2 = test system: OPM-2; parameters: method as in earlier work; details: cited from earlier work
AEBS = AEBS (Homo sapiens, UniProt Q15125+Q9UBM7); assay: Binding to the AEBS in HMCLs; parameters: endogenous in cells; host or cells: RPMI 8226 and LP-1 human multiple myeloma cell lines
Chain of AEBS (Q15125 whole entry): as the sequence (Q15125 whole entry) above
Chain of AEBS (Q9UBM7 whole entry): as the sequence (Q9UBM7 whole entry) above

[9] = RPMI 8226, presence of 500 μM Vit E

In the case of `CC/C(=C(\c1ccc(O)cc1)c1ccc(OCCN(C)C)cc1)c1ccccc1` [OHT], the AV (LP-1 cells [1]; LP-1, absence of Vit E) is reported as “+ + (The sign + means that 80 % cells were positive and contained at least 5 vesicles)”, the MLB (LP-1 cells [1]; LP-1, absence of Vit E) is reported as “+ + (The sign + means that 80 % cells were positive and contained at least 5 vesicles)” and the UV (LP-1 cells [1]; LP-1, absence of Vit E) is reported as “+ (The sign + means that 80 % cells were positive and contained at least 5 vesicles)”. The AV (LP-1 cells [1]; LP-1, presence of 500 μM Vit E) was “+ + (The sign + means that 80 % cells were positive and contained at least 5 vesicles)”, the MLB (LP-1 cells [1]; LP-1, presence of 500 μM Vit E) was “+ + (The sign + means that 80 % cells were positive and contained at least 5 vesicles)” and the UV (LP-1 cells [1]; LP-1, presence of 500 μM Vit E) was “− (otherwise they were considered as negative (-))”. For the same compound, the “SERM and SERDs effects on MM cell lines” value (RPMI 8226) was “G1-arrest and apoptosis”, the “SERM and SERDs effects on MM cell lines” value (NCI-H929) was “G1-arrest and apoptosis” and the “5,6-EC” value (LP-1 cells [2]; LP-1, absence of Vit E) was “+”. The “5,6-EC” value (LP-1 cells [2]; LP-1, presence of 500 μM Vit E) was “−”, the “5,6-EC” value (RPMI 8226 cells [3]; RPMI 8226, absence of Vit E) was “+” and the “5,6-EC” value (RPMI 8226 cells [3]; [9]) was “−”. The “SERM and SERDs effects on MM cell lines” value (Karpas 620) was “No response”, the “intracellular free sterol, triacylglycerol (TG) and sphingomyelin (SM) contents” value (RPMI 8226 and LP-1 cells [4]) was “increases” and the tumor growth (MM tumors) was “block tumor growth”. The “ChEH activity, conversion of 5,6-EC into CT by TLC” value (ChEH) was “ChEH activity was inhibited”, the free sterol accumulated (HMCLs) was “accumulation of desmosterol” and the Desmosterol (LP-1 cells [5]) was 44.4 percent by the weight of total sterol. The Zymostenol (LP-1 cells [5]) was 1.9 percent by the weight of total sterol, the Zymostenol (RPMI 8226 cells [6]) was 1.8 percent by the weight of total sterol and the AV (RPMI 8226 cells [7]; RPMI 8226, absence of Vit E) was “+ + (The sign + means that 80 % cells were positive and contained at least 5 vesicles)”. The MLB (RPMI 8226 cells [7]; RPMI 8226, absence of Vit E) was “+ + (The sign + means that 80 % cells were positive and contained at least 5 vesicles)”, the UV (RPMI 8226 cells [7]; RPMI 8226, absence of Vit E) was “+ (The sign + means that 80 % cells were positive and contained at least 5 vesicles)” and the AV (RPMI 8226 cells [7]; [9]) was “+ + (The sign + means that 80 % cells were positive and contained at least 5 vesicles)”. The MLB (RPMI 8226 cells [7]; [9]) was “+ + (The sign + means that 80 % cells were positive and contained at least 5 vesicles)”, the UV (RPMI 8226 cells [7]; [9]) was “− (otherwise they were considered as negative (-))” and the “SERM and SERDs effects on MM cell lines” value (LP-1) was “G1-arrest and apoptosis”. For the same compound, the “SERM and SERDs effects on MM cell lines” value (U266) was “G1-arrest and apoptosis”, the “rate of long-lived protein degradation” value (RPMI 8226 and LP-1 cells [8]) was “stimulated” and the “SERM and SERDs effects on MM cell lines” value (OPM-2) was “No response”. The “affinity for the AEBS” value (AEBS) was “high affinity”.
